Results published in ChEMBL document CHEMBL3132762, “The effect of a thieno[2,3-b]pyridine PLC- inhibitor on the proliferation, morphology, migration and cell cycle of breast cancer cells” (Medchemcomm, 2014).
One block for each compound: values may come before it. Calls of active or inactive are those of the source. The rule behind the calls is not given here.

Experiments:
[1] = system: MDA-MB-468; assay: Cell cycle arrest in human MDA-MB-468 cells assessed as cell shifting from dominant G0/G1 phases to G2/M phases at 1 uM after 16 to 24 hrs by flow cytometry; format: functional, cell-based
[2] = Inhibition of ER-positive human TamR7 cell proliferation assessed as [3H]thymidine incorporation into DNA helix after 3 days by betaplate counting analysis; format: functional, cell-based
[3] = system: T47D; assay: Inhibition of ER-positive human T47D cell proliferation assessed as [3H]thymidine incorporation into DNA helix after 3 days by betaplate counting analysis; format: functional, cell-based
[4] = Inhibition of ER-positive human TamC3 cell proliferation assessed as [3H]thymidine incorporation into DNA helix after 3 days by betaplate counting analysis; format: functional, cell-based
[5] = system: MDA-MB-435; assay: Inhibition of oestrogen, progesterone and HER2/neu receptor triple negative human MDA-MB-435 cell proliferation assessed as [3H]thymidine incorporation into DNA helix after 3 days by betaplate counting analysis; format: functional, cell-based
[6] = system: MDA-MB-231; assay: Inhibition of red fluorescent mKATE2 labelled human MDA-MB-231 cell migration assessed as displacement of wound edges at 1 uM after 24 hrs by wound healing assay; format: functional; conditions: MDA-MB-231, 24 h
[7] = system: MDA-MB-231; assay: Reduction in red fluorescent mKATE2 labelled human MDA-MB-231 cell number at 1 uM after 24 hrs by fluorescent microscopic analysis; format: ADME, cell-based; conditions: mda-mb-231, 24 h
[8] = system: SK-BR-3; assay: Inhibition of HER2-overexpressing human SKBR3 cell proliferation assessed as [3H]thymidine incorporation into DNA helix after 3 days by betaplate counting analysis; format: functional, cell-based
[9] = system: MDA-MB-231; assay: Cell cycle arrest in human MDA-MB-231 cells assessed as cell shifting from dominant G0/G1 phases to G2/M phases at 1 uM after 16 to 24 hrs by flow cytometry; format: functional, cell-based
[10] = system: MCF7; assay: Cell cycle arrest in human MCF7 cells assessed as cell shifting from dominant G0/G1 phases to G2/M phases at 1 uM after 16 to 24 hrs by flow cytometry; format: functional, cell-based
[11] = system: MDA-MB-453; assay: Inhibition of oestrogen, progesterone and HER2/neu receptor triple negative human MDA-MB-453 cell proliferation assessed as [3H]thymidine incorporation into DNA helix after 3 days by betaplate counting analysis; format: functional, cell-based
[12] = system: T47D; assay: Cell cycle arrest in human T47D cells assessed as cell shifting from dominant G0/G1 phases to G2/M phases at 1 uM after 16 to 24 hrs by flow cytometry; format: functional, cell-based
[13] = system: MDA-MB-436; assay: Inhibition of oestrogen, progesterone and HER2/neu receptor triple negative human MDA-MB-436 cell proliferation assessed as [3H]thymidine incorporation into DNA helix after 3 days by betaplate counting analysis; format: functional
[14] = system: MCF7; assay: Inhibition of ER-positive human MCF7 cell proliferation assessed as [3H]thymidine incorporation into DNA helix after 3 days by betaplate counting analysis; format: functional, cell-based
[15] = system: MDA-MB-468; assay: Inhibition of oestrogen, progesterone and HER2/neu receptor triple negative human MDA-MB-468 cell proliferation assessed as [3H]thymidine incorporation into DNA helix after 3 days by betaplate counting analysis; format: functional, cell-based
[16] = system: MCF7; assay: Cell cycle arrest in human MCF7 cells assessed as cell accumulation at S phase at 1 uM after 16 to 24 hrs by flow cytometry; format: functional, cell-based
[17] = Inhibition of ER-positive human TamR6 cell proliferation assessed as [3H]thymidine incorporation into DNA helix after 3 days by betaplate counting analysis; format: functional, cell-based
[18] = system: BT-20; assay: Inhibition of oestrogen, progesterone and HER2/neu receptor triple negative human BT20 cell proliferation assessed as [3H]thymidine incorporation into DNA helix after 3 days by betaplate counting analysis; format: functional, cell-based
[19] = system: MDA-MB-231; assay: Inhibition of oestrogen, progesterone and HER2/neu receptor triple negative human MDA-MB-231 cell proliferation assessed as [3H]thymidine incorporation into DNA helix after 3 days by betaplate counting analysis; format: functional, cell-based
[20] = Inhibition of ER-positive human KPL1 cell proliferation assessed as [3H]thymidine incorporation into DNA helix after 3 days by betaplate counting analysis; format: functional, cell-based; conditions: KPL-1
[21] = system: MDA-MB-468; assay: Cell cycle arrest in human MDA-MB-468 cells assessed as cell accumulation at S phase at 1 uM after 16 to 24 hrs by flow cytometry; format: functional, cell-based
[22] = Inhibition of ER-positive human TamC6 cell proliferation assessed as [3H]thymidine incorporation into DNA helix after 3 days by betaplate counting analysis; format: functional, cell-based
[23] = system: T47D; assay: Cell cycle arrest in human T47D cells assessed as cell accumulation at S phase at 1 uM after 16 to 24 hrs by flow cytometry; format: functional, cell-based
[24] = system: MDA-MB-231; assay: Cell cycle arrest in human MDA-MB-231 cells assessed as cell accumulation at S phase at 1 uM after 16 to 24 hrs by flow cytometry; format: functional, cell-based
[25] = system: MDA-MB-231; assay: Induction of morphological changes in red fluorescent labelled human MDA-MB-231 cells assessed as rounded-up cells after 16 hrs by microscopic analysis; format: functional, cell-based
[26] = Inhibition of ER-positive human TamR3 cell proliferation assessed as [3H]thymidine incorporation into DNA helix after 3 days by betaplate counting analysis; format: functional, cell-based
[27] = system: HBL-100; assay: Inhibition of oestrogen, progesterone and HER2/neu receptor triple negative human HBL100 cell proliferation assessed as [3H]thymidine incorporation into DNA helix after 3 days by betaplate counting analysis; format: functional, cell-based
[28] = system: MDA-MB-231; assay: Induction of morphological changes in red fluorescent labelled human MDA-MB-231 cells assessed as rounded-up cells at 6.25 to 1000 nM after 16 hrs by microscopic analysis; format: functional, cell-based
[29] = system: MDA-MB-231; assay: Growth inhibition of human MDA-MB-231 cells after 3 days by DAPI staining; format: functional; conditions: MDA-MB-231, 72 h

IC50 [3]: 570 nM
IC50 [5]: 77 nM
IC50 [8]: 138 nM
IC50 [11]: 186 nM
IC50 [13]: 157 nM
IC50 [14]: 125 nM
IC50 [15]: 163 nM
IC50 [18]: 194 nM
IC50 [19]: 357 nM
Structure (SMILES): Nc1c(C(=O)Nc2cccc(Cl)c2)sc2nc3c(cc12)C(=O)CCC3
Activity [1]: Active
IC50 [2]: 154 nM
IC50 [4]: 122 nM
inhibition at 1 µM [6]: 50%
Activity [7]: Toxic
Activity [9]: Active
Activity [10]: Active
Activity [12]: Active
Activity [16]: inactive
IC50 [17]: 105 nM
IC50 [20]: 106 nM
Activity [21]: inactive
IC50 [22]: 102 nM
Activity [23]: inactive
Activity [24]: inactive
Activity [25]: Active
IC50 [26]: 120 nM
IC50 [27]: 265 nM

GI50 [29]: 25 nM
Structure (SMILES): CC(=O)Nc1cccc(-n2c(=O)n(C3CC3)c(=O)c3c(Nc4ccc(I)cc4F)n(C)c(=O)c(C)c32)c1 [TRAMETINIB]
Activity [28]: inactive
